US4563472A, “Iodoallyl and iodopropargyl substituted tetrazoles and anti-microbial compositions thereof” (Meiji Seika Kaisha, Ltd., priority 1982, dated 1986)
In brackets after ≈: the same amount, converted by molar mass. Where two headings read alike, the source gives them in different places.

Tests used:
[1] = system: Trichophyton interdigitale; test: Antifungal Activity (in Medicinal Field), MIC; assay type: cell-based; conditions: read-out: Minimal Inhibitory Conc. (MIC)
[2] = system: Aspergillus flavus ATCC 6275; test: Antifungal Activity (in Industrial Field), MIC; assay type: cell-based; conditions: ATCC6275, read-out: Minimal Inhibitory Conc. (MIC)
[3] = system: Pullularia pullulans IAM F-24; test: Antifungal Activity (in Industrial Field), MIC; assay type: cell-based
[4] = system: Chaetomium globosum ATCC 6205; test: Antifungal Activity (in Industrial Field), MIC; assay type: cell-based; conditions: ATCC6205, read-out: Minimal Inhibitory Conc. (MIC)
[5] = system: Colletotrichum lagenarium; test: Antibacterial and Antifungal Activities (in Agricultural Field), MIC; assay type: cell-based; conditions: Colletotrichum orbiculare, read-out: Minimal Inhibitory Conc. (MIC)
[6] = system: Cryptococcus neoformans Cr-1; test: Antifungal Activity (in Medicinal Field), MIC; assay type: cell-based; conditions: CR1, read-out: Minimal Inhibitory Conc. (MIC)
Candida alubicans GA-24 = test: Antifungal Activity (in Medicinal Field), MIC; assay type: cell-based; conditions: GA24; Candida alubicans GA-24; read-out: Minimal Inhibitory Conc. (MIC)
[7] = system: Fusarium oxysporum f. lycopersici; test: Antibacterial and Antifungal Activities (in Agricultural Field), MIC; assay type: cell-based; conditions: read-out: Minimal Inhibitory Conc. (MIC)
[8] = system: Aspergillus fumigatus Saito; test: Antifungal Activity (in Medicinal Field), MIC; assay type: cell-based; conditions: read-out: Minimal Inhibitory Conc. (MIC)
[9] = system: Aspergillus fumigatus IAM 2621; test: Antifungal Activity (in Industrial Field), MIC; assay type: cell-based; conditions: IAM2621, read-out: Minimal Inhibitory Conc. (MIC)
Glomerella cingulata = test: Antibacterial and Antifungal Activities (in Agricultural Field), MIC; assay type: cell-based; conditions: Colletotrichum gloeosporioides, read-out: Minimal Inhibitory Conc. (MIC)
Cochliobolus miyabeanus = test: as above; assay type: cell-based; conditions: Bipolaris oryzae, read-out: Minimal Inhibitory Conc. (MIC)
Botrytis cinerea = test: as above; assay type: cell-based; conditions: read-out: Minimal Inhibitory Conc. (MIC)
[10] = system: Rhizopus nigricans S.N. 32; test: Antifungal Activity (in Industrial Field), MIC; assay type: cell-based; conditions: Rhizopus stolonifer, read-out: Minimal Inhibitory Conc. (MIC)
[11] = system: Penicillium luteum ATCC 9644; test: Antifungal Activity (in Industrial Field), MIC; assay type: cell-based; conditions: Ascospirella lutea, ATCC9644, read-out: Minimal Inhibitory Conc. (MIC)
Pellicularia filamentosa = test: Antibacterial and Antifungal Activities (in Agricultural Field), MIC; assay type: cell-based; conditions: read-out: Minimal Inhibitory Conc. (MIC)
[12] = system: Pseudomonas syringae pv. tabaci; test: as above; assay type: cell-based; conditions: read-out: Minimal Inhibitory Conc. (MIC)
Phricularia oryzae = test: as above; assay type: cell-based; conditions: read-out: Minimal Inhibitory Conc. (MIC)
[13] = system: Xanthomonas campestris pv. oryzae; test: microbe, parasite or virus in culture; assay type: cell-based; conditions: read-out: Minimal Inhibitory Conc. (MIC)
Erwinia carotovora = test: Antibacterial and Antifungal Activities (in Agricultural Field), MIC; assay type: cell-based; conditions: Pectobacterium carotovorum, read-out: Minimal Inhibitory Conc. (MIC)
[14] = system: Cladosporium herbarum IAM F-517; test: Antifungal Activity (in Industrial Field), MIC; assay type: cell-based; conditions: IAMF517, read-out: Minimal Inhibitory Conc. (MIC)
[15] = system: Trichoderma T-1 ATCC 9645; test: Antifungal Activity (in Industrial Field), MIC; assay type: cell-based; conditions: ATCC9645, read-out: Minimal Inhibitory Conc. (MIC)
[16] = system: Trichophyton metagrophytes 530324; test: Antifungal Activity (in Medicinal Field), MIC; assay type: cell-based; conditions: Trichophyton metagrophytes 530324; read-out: Minimal Inhibitory Conc. (MIC)
[17] = system: Corynebacterium michiganense; test: Antibacterial and Antifungal Activities (in Agricultural Field), MIC; assay type: cell-based; conditions: Clavibacter michiganensis, read-out: Minimal Inhibitory Conc. (MIC)
Diaporithe citri = test: as above; assay type: cell-based; conditions: read-out: Minimal Inhibitory Conc. (MIC)
Gibberella fujikuroi = test: as above; assay type: cell-based; conditions: Fusarium fujikuroi, read-out: Minimal Inhibitory Conc. (MIC)
[18] = system: Aspergillus terreus PQMD 82 j; test: Antifungal Activity (in Industrial Field), MIC; assay type: cell-based; conditions: PQMD82J, read-out: Minimal Inhibitory Conc. (MIC)
Mucor spinescens IAM Mu3 = test: Antifungal Activity (in Industrial Field), MIC; assay type: cell-based; conditions: IAMMU3, read-out: Minimal Inhibitory Conc. (MIC)
[19] = system: Xanthomonas campestris pv. citri; test: Antibacterial and Antifungal Activities (in Agricultural Field), MIC; assay type: cell-based; conditions: read-out: Minimal Inhibitory Conc. (MIC)
Alternaria kikuchiana = test: as above; assay type: cell-based; conditions: read-out: Minimal Inhibitory Conc. (MIC)
[20] = system: Trichophyton mentagrophytes; test: Reducing culture positive rate of skin slices from infected guinea pigs; assay type: in vivo, guinea pigs (White Hartly-strain); parameters: concentration or dose not given beside the values; conditions: after 8 days application, non-treated 100
[21] = system: Trichophyton mentagrophytes; test: Therapeutic experiment on trichophytosis in guinea pigs, visual observation; assay type: in vivo, guinea pigs (White Hartly-strain); conditions: 1% preparation, 0.25 ml once per day, 8 consecutive days
[22] = system: Serratia marcescens MB-3848; test: Antibacterial Activity (in medicinal field), MIC; assay type: cell-based; conditions: MB3848, read-out: Minimal Inhibitory Conc. (MIC)
[23] = system: Staphylococcus aureus 209P JC-1; test: Antibacterial Activity (in medicinal field), MIC; assay type: cell-based; conditions: Staphylococcus aureus 209P JC-1; read-out: Minimal Inhibitory Conc. (MIC)
[24] = system: Shigella sonnei EW 33 Type I; test: Antibacterial Activity (in medicinal field), MIC; assay type: cell-based; conditions: Shigella sonnei, EW33TYPEI, read-out: Minimal Inhibitory Conc. (MIC)
[25] = system: Staphylococcus epidermidis ATCC 14990; test: Antibacterial Activity (in medicinal field), MIC; assay type: cell-based; conditions: ATCC14990; Staphylococcus epidermidis ATCC 14990; read-out: Minimal Inhibitory Conc. (MIC)
Proteus vulgaris OX-19 = test: Antibacterial Activity (in medicinal field), MIC; assay type: cell-based; conditions: OX19, read-out: Minimal Inhibitory Conc. (MIC)
[26] = system: Escherichia coli NIHJ JC-2; test: Antibacterial Activity (in medicinal field), MIC; assay type: cell-based; conditions: NIHJJC2, read-out: Minimal Inhibitory Conc. (MIC)
[27] = system: Pseudomonas cepacia M-0527; test: Antibacterial Activity (in medicinal field), MIC; assay type: cell-based; conditions: Burkholderia cepacia, M0527, read-out: Minimal Inhibitory Conc. (MIC)
[28] = system: Klebsiella pneumoniae PCI-602; test: Antibacterial Activity (in medicinal field), MIC; assay type: cell-based; conditions: PCI602, read-out: Minimal Inhibitory Conc. (MIC)
[29] = IAMF24, Pullularia pullulans IAM F-24, read-out: Minimal Inhibitory Conc. (MIC)

Compound | MIC [1] [µg/mL] | MIC [2] [µg/mL] | MIC [4] [µg/mL] | MIC [5] [µg/mL] | MIC [6] [µg/mL] | MIC (Candida alubicans GA-24) [µg/mL] | MIC [7] [µg/mL] | MIC [8] [µg/mL] | MIC [9] [µg/mL] | MIC (Glomerella cingulata) [µg/mL] | MIC (Cochliobolus miyabeanus) [µg/mL] | MIC (Botrytis cinerea) [µg/mL] | MIC (Pellicularia filamentosa) [µg/mL] | MIC [12] [µg/mL] | MIC (Erwinia carotovora) [µg/mL] | MIC [16] [µg/mL] | MIC (Diaporithe citri) [µg/mL] | MIC (Gibberella fujikuroi) [µg/mL] | MIC [19] [µg/mL] | MIC (Alternaria kikuchiana) [µg/mL] | further results
Cc1nnn(CC(I)=C(I)I)n1 [2-(2',3',3'-triiodoallyl)-5-methyltetrazole] | 0.19 (≈ 0.379 µM) | 1.56 (≈ 3.11 µM) | 6.25 (≈ 12.5 µM) | 0.78 (≈ 1.55 µM) | 1.56 (≈ 3.11 µM) | 0.78 (≈ 1.55 µM) | 3.13 (≈ 6.24 µM) | 0.19 (≈ 0.379 µM) | 1.56 (≈ 3.11 µM) | 0.39 (≈ 0.777 µM) | 6.25 (≈ 12.5 µM) | 0.39 (≈ 0.777 µM) | > 100 | > 100 | > 100 | 0.19 (≈ 0.379 µM) | 0.78 (≈ 1.55 µM) | 0.78 (≈ 1.55 µM) | 50 (≈ 99.6 µM) | 1.56 (≈ 3.11 µM) | MIC ([3]; IAMF24, read-out: Minimal Inhibitory Conc. (MIC)): 3.13 µg/mL (≈ 6.24 µM); MIC [10]: 1.56 µg/mL (≈ 3.11 µM); MIC [11]: 6.25 µg/mL (≈ 12.5 µM); MIC (Phricularia oryzae): 3.13 µg/mL (≈ 6.24 µM); MIC [13]: 6.25 µg/mL (≈ 12.5 µM); MIC [14]: 6.25 µg/mL (≈ 12.5 µM); MIC [15]: 6.25 µg/mL (≈ 12.5 µM); MIC ([17]; Corynebacterium michiganense): 25 µg/mL (≈ 49.8 µM); MIC [18]: 0.39 µg/mL (≈ 0.777 µM); MIC (Mucor spinescens IAM Mu3): 1.56 µg/mL (≈ 3.11 µM)
O=[N+]([O-])c1ccn(CC(I)=C(I)I)c1 [1-(2',3',3'-triiodoallyl)-3-nitropyrrole] | 0.39 (≈ 0.736 µM) |  |  | 0.39 (≈ 0.736 µM) | 0.39 (≈ 0.736 µM) | 0.19 (≈ 0.359 µM) | 0.78 (≈ 1.47 µM) | 0.09 (≈ 0.17 µM) |  | 0.39 (≈ 0.736 µM) | 12.5 (≈ 23.6 µM) | 0.19 (≈ 0.359 µM) | 50 (≈ 94.4 µM) | 6.25 (≈ 11.8 µM) | 6.25 (≈ 11.8 µM) | 0.19 (≈ 0.359 µM) | 0.39 (≈ 0.736 µM) | 0.39 (≈ 0.736 µM) | 50 (≈ 94.4 µM) | 0.78 (≈ 1.47 µM) | Reducing Culture Positive Rate ([20]; 3 days culture): 16.7%; Reducing Culture Positive Rate ([20]; 5 days culture): 25.0%; Reducing Culture Positive Rate ([20]; 7 days culture): 33.3%; Therapeutic Effect: Desquamation [21]: effective; Therapeutic Effect: Thickening [21]: effective; MIC (Phricularia oryzae): 1.56 µg/mL (≈ 2.94 µM); MIC [13]: 25 µg/mL (≈ 47.2 µM); MIC [17]: 0.98 µg/mL (≈ 1.85 µM)
IC(I)=C(I)Cn1ccnc1 [1-(2',3',3'-triiodoallyl)imidazole] | 3.12 (≈ 6.42 µM) | 3.13 (≈ 6.44 µM) | 1.56 (≈ 3.21 µM) | 1.56 (≈ 3.21 µM) | 6.25 (≈ 12.9 µM) | 1.56 (≈ 3.21 µM) | 1.56 (≈ 3.21 µM) | 6.25 (≈ 12.9 µM) | 6.25 (≈ 12.9 µM) | 1.56 (≈ 3.21 µM) | 6.25 (≈ 12.9 µM) | 1.56 (≈ 3.21 µM) | 50 (≈ 103 µM) | 12.5 (≈ 25.7 µM) | 12.5 (≈ 25.7 µM) | 1.56 (≈ 3.21 µM) | 0.78 (≈ 1.61 µM) | 0.78 (≈ 1.61 µM) | 25 (≈ 51.5 µM) | 1.56 (≈ 3.21 µM) | MIC [22]: 12.5 µg/mL (≈ 25.7 µM); MIC [23]: 12.5 µg/mL (≈ 25.7 µM); MIC [24]: 6.5 µg/mL (≈ 13.4 µM); MIC [3, 29]: 3.13 µg/mL (≈ 6.44 µM); MIC [25]: 12.5 µg/mL (≈ 25.7 µM); MIC (Proteus vulgaris OX-19): 12.5 µg/mL (≈ 25.7 µM); MIC [11]: 0.78 µg/mL (≈ 1.61 µM); MIC (Phricularia oryzae): 3.13 µg/mL (≈ 6.44 µM); MIC [26]: 12.5 µg/mL (≈ 25.7 µM); MIC [14]: 0.39 µg/mL (≈ 0.803 µM); MIC [15]: 6.25 µg/mL (≈ 12.9 µM); MIC [27]: 6.25 µg/mL (≈ 12.9 µM); MIC ([17]; Corynebacterium michiganense): 1.56 µg/mL (≈ 3.21 µM); MIC [28]: 12.5 µg/mL (≈ 25.7 µM); MIC [18]: 0.78 µg/mL (≈ 1.61 µM); MIC (Mucor spinescens IAM Mu3): 6.25 µg/mL (≈ 12.9 µM)
O=[N+]([O-])c1nccn1CC(I)=C(I)I [1-(2',3',3'-triiodoallyl)-2-nitroimidazole] | 1.56 (≈ 2.94 µM) | 1.56 (≈ 2.94 µM) | 1.56 (≈ 2.94 µM) | 0.78 (≈ 1.47 µM) | 25 (≈ 47.1 µM) | 0.78 (≈ 1.47 µM) | 1.56 (≈ 2.94 µM) | 0.78 (≈ 1.47 µM) | 6.25 (≈ 11.8 µM) | 0.78 (≈ 1.47 µM) | 0.78 (≈ 1.47 µM) | 0.19 (≈ 0.358 µM) | 25 (≈ 47.1 µM) | 12.5 (≈ 23.5 µM) | 12.5 (≈ 23.5 µM) | 0.78 (≈ 1.47 µM) | 1.56 (≈ 2.94 µM) | 0.78 (≈ 1.47 µM) | 25 (≈ 47.1 µM) | 0.78 (≈ 1.47 µM) | MIC [23]: 12.5 µg/mL (≈ 23.5 µM); MIC [24]: 3.12 µg/mL (≈ 5.88 µM); MIC [3, 29]: 3.13 µg/mL (≈ 5.9 µM); MIC [25]: 12.5 µg/mL (≈ 23.5 µM); MIC (Proteus vulgaris OX-19): 6.25 µg/mL (≈ 11.8 µM); MIC [11]: 3.13 µg/mL (≈ 5.9 µM); MIC [13]: 12.5 µg/mL (≈ 23.5 µM); MIC [14]: 0.39 µg/mL (≈ 0.735 µM); MIC [15]: 6.25 µg/mL (≈ 11.8 µM); MIC [27]: 3.12 µg/mL (≈ 5.88 µM); MIC ([17]; Corynebacterium michiganense): 3.13 µg/mL (≈ 5.9 µM); MIC [28]: 6.25 µg/mL (≈ 11.8 µM); MIC [18]: 0.78 µg/mL (≈ 1.47 µM); MIC (Mucor spinescens IAM Mu3): 6.25 µg/mL (≈ 11.8 µM)
